Results on 2 compounds are retold here after patent publication US11987579B2 (Duke University, priority 2018, dated 2024).

The structures appear in SMILES notation.

What all share (type): cell-based
For one experiment, the system named is pAMPK. The experiment can be described thus: Evaluation of phospho-AMPK levels by Western blot. The settings on record: CCD841Co cells, whole cell lysate, vs DMSO control. Here is the method:
12-well plates were incubated with 250 μL poly-D-lysine solution (Sigma, catalog number P6407) at 10 μg/mL for 30 minutes at room, temperature, the poly-D-lysine solution was removed, and the wells washed twice with 500 μL distilled water. Colonic epithelial CCD841Co cells were cultured in MEM medium plus 1 mM sodium pyruvate (Invitrogen, catalog number 11360070), lx MEM Non-Essential Amino Acids (Gibco catalog number 11140), 10% FBS, and 100 U/ml penicillinstreptomycin. 0.27 million CCD841Co cells per well were plated in culture medium in the poly-Dlysine coated 12-well plates and allowed to attach overnight at 37° C. in a 5% CO2 incubator. The next morning, the media was replaced with DMSO vehicle in cell media, DK419 or niclosamidein DMSO diluted to the indicated concentration with DMEM medium (Sigma, catalog number D5030) supplemented with 2 mM sodium pyruvate and 2 mM L-glutamine (Invitrogen, catalog number 25030081). […] After 30 minutes treatment, the media was removed and the cells were lysed with 120 μL 1×Laemmii sample buffer. Immunoblots of the cell lysates using antibodies to phospho-AMPK (pAMPK) (Cell Signaling Technology, catalog number 2535) and AMPK (Cell Signaling Technology, catalog number 2532) was used to detect phosphorylated AMPK ([…]) levels and total AMPK levels, respectively. Antibodies to β-actin were used as loading controls.

In another experiment the test system is HT-29. The experiment in a line: Inhibition of cell proliferation by MTS assay, HT-29. The settings on record: Homo sapiens; HT-29, MTS assay at 72 hr. Here is the method:
(§1) Colon cancer cell lines SW948, HT-29, HCT116, CRC240, SW480, and DLD-1 were used in the cell proliferation assay. All cell lines, except CRC240, were from ATCC. CRC240, a colorectal cancer patient derived xenograft (PDX) cell line, was obtained from the Hsu lab (Duke University). Generation of CRC240 cell line was previously reported. SW948 cells were cultured in Leibovitz's medium (Gibco, catalog number 21083-027). HT-29 and HCT116 cells were cultured in McCoy's 5A medium (Gibco, catalog number 16600-082). SW480 cells were cultured in MEM medium. CRC240 and DLD-1 cells were cultured in RPMI medium (Gibco, catalog number 11875-093). All media were supplemented with 10% FBS and 100 U/ml penicillin-streptomycin. […] IC50 values calculated using Graphpad Prism.
Background: Tetrazolium assays rely on reduction of a dye to a coloured formazan, in cell work by metabolically active cells.

The subject of another experiment is SW480. The experiment in a line: Inhibition of cell proliferation by MTS assay, SW480. The settings on record: Homo sapiens; SW480, MTS assay at 72 hr. The protocol:
as §1

The next experiment relates to SW948. The experiment can be described thus: Inhibition of cell proliferation by MTS assay, SW948. The settings on record: Homo sapiens; SW948, MTS assay at 72 hr. Here is the method:
as §1

In a further experiment the test system is HCT116. The experiment can be described thus: Inhibition of cell proliferation by MTS assay, HCT116. The following applies: Homo sapiens, HCT-116; HCT116, MTS assay at 72 hr. The protocol: as §1
For the next experiment, the system named is six CRC tumor cell lines. The experiment can be described thus: MTS assay, summary over six CRC tumor cell lines. The settings on record: read-out: IC50 values, range over the six CRC cell lines. Here is the method: as §1
The subject of a further experiment is CCD841Co colonic cells. The experiment in a line: Assessment of oxygen consumption rate (OCR), Seahorse XFp. The following applies: 1 μM, CCD841Co cells, basal conditions, vs DMSO. Here is the method: Colonic epithelial CCD841Co cells were plated in Seahorse XFp 8-well miniplates at 8000 cells/well and allowed to attach overnight at 37° C. in a 5% CO2 incubator. Polarographic analysis of OCR was performed using Seahorse XF Analyzer (Agilent Technologies, Santa Clara, Calif.) and a Seahorse XFp Cell Mito Stress Test Kit (Agilent Technologies, catalog number 103010-100). […] Data were analyzed by the software Wave (Version 2.3.0.20, Agilent Technologies, Santa Clara, Calif.).

In another experiment the test system is Fzd1-GFP. The experiment can be described thus: Frizzled 1-GFP (Fzd1-GFP) internalization assay. The following applies: 12.5 μM, 6 h, 37° C., U20S cells stably expressing Fzd1-GFP, confocal microscopy, vs DMSO. The protocol:
The Frizzled 1-GFP (Fzd1-GFP) assay was performed following a procedure similar to that previously reported (Chen et al., Biochemistry 2009, 48, 10267). Briefly, U20S cells stably expressing Fzd1-GFP were plated in con local dishes and incubated at 37° C. with 5% CO2. After 24 hours the cells were treated with 12.5 μM of test compound (dissolved in DMSO) or DMSO alone in media as a control for 6 hours at 37° C. and then fixed with 4% paraformaldehyde. The cells were then examined by microscopy using an LSM 510-Meta confocal microscope (Carl Zeiss, Thornwood, N.Y., USA) equipped with 40× and 100×apo chromat objectives. GFP was excited using a 488-nm argon laser line. Images were processed using the LSM software Image Browser.

In the next experiment the test system is Wnt/β-catenin signaling. The experiment can be described thus: Wnt3A-stimulated TOPFlash reporter assay. The settings on record: Homo sapiens; HEK293 stably expressing TOPFlash and Renilla luciferase, Wnt3A-conditioned medium, 0.04 to 10 μM, mean±SEM, n=3; read-out: IC50, inhibition of Wnt/β-catenin signaling in TOPFlash assay. The protocol:
Wnt-3A conditioned medium was prepared using L WNT-3A cells (ATCC® CRL-2647™) purchased from ATCC, and was obtained using published protocols (http://www.atcc.org/Products/All/CRL-2647.aspx#culturemethod). HEK293 were stably transfected with p8×TOPFlash, Renilla luciferase plasmid pRL-TK, and pLKO.1. Briefly, stably transfected cells were seeded in 100 μL of cell growth medium (MEM, Sigma, catalog number M4655) supplemented with 10% FBS (Atlanta Biologieals, catalog number S11050), and 1 μg/mL puromycin (Sigma, catalog number P8833), 100 U/mL penicillin-streptomycin (Invitrogen, catalog number 15140122)/well in 96-well plates and incubated in 5% CO2 at 37° C. overnight to 100% confluency. Fifty microliters of Wnt-3A conditioned medium containing the chemical compounds to be tested or DMSO was added to each well. After 6 h treatment, the cell were washed once with PBS and lysed with 55 μL of Passive Lysis Buffer supplied in the Dual-Luciferase Reporter Assay kit (Promega, Catalog number E1960). Twenty-five microliters of cell lysate was used for measuring luciferase activity in a […] plate reader (FluoStar Optima, BMG Labtech, Chicago, Ill.).
A general note: A reporter such as luciferase makes a cellular process visible.

A further experiment concerns CRC240. The experiment can be described thus: Inhibition of cell proliferation by MTS assay, CRC240. The following applies: Homo sapiens; CRC240, MTS assay at 72 hr. The protocol: as §1

As to `O=C(Nc1ccc([N+](=O)[O-])cc1Cl)c1cc(Cl)ccc1O` [Niclosamide, reference compound], the “pAMPK levels by Western blot” value in the experiment with pAMPK is listed as “increased pAMPK levels”. The IC50 is 100 nM with HT-29; 740 nM with SW480; 100 nM with SW948; 310 nM in the experiment with HCT116; 100 to 1780 nM in the experiment on six CRC tumor cell lines; 450 ± 140 nM in the experiment on Wnt/β-catenin signaling. This compound registered an IC50 in the experiment with CRC240 of 680 nM. For the same compound, in the experiment with CCD841Co colonic cells, the oxygen consumption rate result is given as “increases the oxygen consumption rate”. Further, in the experiment with Fzd1-GFP, the “Fzd1-GFP receptor internalization (green fluorescent internal puncta)” value was “robust punctate pattern”.
As for `O=C(Nc1ccc(C(F)(F)F)cc1)c1cc(Cl)cc2nc(C(F)(F)F)[nH]c12` [DK419, 6-chloro-2-(trifluoromethyl)-N-(4-(trifluoromethyl)phenyl)-1H-benzo[d]imidazole-4-carboxamide], the “pAMPK levels by Western blot” value with pAMPK is given as “increased the levels of pAMPK”. Also, the IC50 with HT-29 was 110 nM; in the experiment on SW480, 320 nM; with SW948 it was 40 nM; in the experiment on HCT116 it was 230 nM; with six CRC tumor cell lines, 40 to 350 nM; in the experiment on Wnt/β-catenin signaling, 190 ± 80 nM. The IC50 in the experiment on CRC240 was 310 nM. The oxygen consumption rate entry with CCD841Co colonic cells is recorded as “increases the rate of oxygen consumption”. Also, the “Fzd1-GFP receptor internalization (green fluorescent internal puncta)” value in the experiment with Fzd1-GFP is listed as “robust punctate pattern”.
